The term pIC50 denotes the IC50 on a negative log10 scale, so that one unit is a factor of ten. A lower pIC50 goes with a large IC50.

Our source for the IC50 values is patent US20230399341A1, “7-PHENYL SUBSTITUTED 2-AMINOQUINAZOLINE INHIBITORS OF HPK1” (MERCK SHARP & DOHME LLC, priority 2020, published 2023).

pIC50: −log10 of the molar value.

The test addresses T1, Human HPK1, catalytic domain (Homo sapiens, UniProt Q92918).
T1 sequence (Q92918 1-346): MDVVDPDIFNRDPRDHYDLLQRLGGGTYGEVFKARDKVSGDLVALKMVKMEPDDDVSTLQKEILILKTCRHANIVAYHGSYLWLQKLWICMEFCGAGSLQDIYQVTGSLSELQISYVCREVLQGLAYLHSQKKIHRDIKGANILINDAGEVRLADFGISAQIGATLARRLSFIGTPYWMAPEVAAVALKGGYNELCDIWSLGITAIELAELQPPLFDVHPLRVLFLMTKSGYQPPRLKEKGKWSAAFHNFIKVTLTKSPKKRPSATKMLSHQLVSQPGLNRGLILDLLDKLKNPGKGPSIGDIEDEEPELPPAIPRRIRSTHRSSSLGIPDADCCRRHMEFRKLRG
Briefly: HPK1-SLP76 TR-FRET Assay. The test is classed as biochemical. The conditions noted are these: 75 pM HPK1, ATP 10 uM, SLP76 10 nM, 30 min pre-incubation, 60 min reaction. (TR-FRET usually uses a lanthanide donor and a delayed reading to cut background.)

Turning to `CCC1COC(=O)N1c1cc(N)c2cnc(Nc3cc4c(cc3OC)CCN(C)C4)nc2c1` (single isomer, unassigned) [Compound 3-16, (S or R)-3-{5-amino-2-[(6-methoxy-2-methyl-1,2,3,4-tetrahydroisoquinolin-7-yl)amino]quinazolin-7-yl}-4-ethyl-1,3-oxazolidin-2-one], the pIC50 is 9.77.

As to `COc1nc(C)ccc1Nc1ncc2c(N)c(F)c(-c3cnc4c(c3C)NCCO4)cc2n1` [Compound 2-66, 6-fluoro-N~2~-(2-methoxy-6-methylpyridin-3-yl)-7-(8-methyl-2,3-dihydro-1H-pyrido[2,3-b][1,4]oxazin-7-yl)quinazoline-2,5-diamine], the pIC50 is 9.14. Under `CN1Cc2cc(Nc3ncc4c(N)c(F)c(-c5cnc6c(c5Cl)NCCO6)cc4n3)ccc2C2(CC2)C1` [Compound 2-152, 7-(8-chloro-2,3-dihydro-1H-pyrido[2,3-b][1,4]oxazin-7-yl)-6-fluoro-N~2~-(2′-methyl-2′,3′-dihydro-1′H-spiro[cyclopropane-1,4′-isoquinolin]-7′-yl)quinazoline-2,5-diamine] stands 10.15.

In the case of `COc1cc2c(cc1Nc1ncc3ccc(-c4cc(N)cc(C#N)c4)cc3n1)CNCC2` [Compound 1-62, 3-amino-5-{2-[(6-methoxy-1,2,3,4-tetrahydroisoquinolin-7-yl)amino]quinazolin-7-yl}benzonitrile], the pIC50 was 6.94. Under `COc1cc2c(cc1Nc1ncc3c(N)c(F)c(-c4ccccc4-c4ccnn4C)cc3n1)CN(C)CC2` [Compound 2-65, 6-fluoro-N~2~-(6-methoxy-2-methyl-1,2,3,4-tetrahydroisoquinolin-7-yl)-7-[2-(1-methyl-1H-pyrazol-5-yl)phenyl]quinazoline-2,5-diamine] stands 7.78. Under `COc1cc2c(cc1Nc1ncc3ccc(-c4ccc(F)cc4CN)cc3n1)CN(C)CC2` [Compound 1-8, 7-[2-(aminomethyl)-4-fluorophenyl]-N-(6-methoxy-2-methyl-1,2,3,4-tetrahydroisoquinolin-7-yl)quinazolin-2-amine] stands 6.40; under `Cc1c(-c2cc3nc(Nc4ccc5c(c4)COCC5)ncc3c(N)c2F)cnc2c1NCCO2` [Compound 2-118, N~2~-(3,4-dihydro-1H-2-benzopyran-7-yl)-6-fluoro-7-(8-methyl-2,3-dihydro-1H-pyrido[2,3-b][1,4]oxazin-7-yl)quinazoline-2,5-diamine], 10.22; under `CCS(=O)(=O)Cc1ccc(Nc2ncc3c(N)c(F)c(-c4cnc5c(c4C)NCCO5)c(Cl)c3n2)cc1` [Compound 2-134], 7.24.

Regarding `COc1cc2c(cc1Nc1ncc3c(N)c(F)c(-c4cnc5c(c4C)NCCO5)c(Cl)c3n1)CN(C(C)C)CC2` [Compound 2-102, (+ or −)-8-chloro-6-fluoro-N~2~-[6-methoxy-2-(propan-2-yl)-1,2,3,4-tetrahydroisoquinolin-7-yl]-7-(8-methyl-2,3-dihydro-1H-pyrido[2,3-b][1,4]oxazin-7-yl)quinazoline-2,5-diamine], the pIC50 was 9.69. This pIC50 lies 2.45 log units higher than the previous one. Under `COc1cc2c(cc1Nc1ncc3ccc(-c4cccc(C(=O)NC5CC5)c4)cc3n1)CNCC2` [Compound 1-67, N-cyclopropyl-3-{2-[(6-methoxy-1,2,3,4-tetrahydroisoquinolin-7-yl)amino]quinazolin-7-yl}benzamide] stands 7.47; under `COc1cc2c(cc1Nc1ncc3ccc(-c4cccc(CC#N)c4)cc3n1)CNCC2` [Compound 1-55, (3-{2-[(6-methoxy-1,2,3,4-tetrahydroisoquinolin-7-yl)amino]quinazolin-7-yl}phenyl)acetonitrile], 7.28. In the case of `Cc1c(-c2cc3nc(Nc4ccc(CC(=O)N5CCOCC5)cc4)ncc3cc2F)cnc2c1NCCO2` [Compound 1-133, 2-(4-{[6-fluoro-7-(8-methyl-2,3-dihydro-1H-pyrido[2,3-b][1,4]oxazin-7-yl)quinazolin-2-yl]amino}phenyl)-1-(morpholin-4-yl)ethan-1-one] it was 10.08.
